This is an account of results in ChEMBL document CHEMBL4406853 (Eur J Med Chem, 2019).

Test [1] addresses T1, Mu-type opioid receptor (Homo sapiens, UniProt P35372). In words: Inhibition of mu opioid receptor (unknown origin) expressed in HEK293 cells assessed as inhibition of forskolin-stimulated intracellular cAMP accumulation preincubated for 30 mins followed by forskolin-stimulation and measured after 60 mins. Format: functional, cell-based. For orientation: cAMP levels reflect the balance of adenylyl cyclase and phosphodiesterase activity.

For test [2], the target named is T1, Mu-type opioid receptor. In words: Inhibition of mu opioid receptor (unknown origin) expressed in HEK293 cells assessed as inhibition of forskolin-stimulated […] preincubated for 30 mins followed by forskolin-stimulation and measured after 60 mins. Format: cell-based. (Activated receptors often draw arrestin, which recruitment assays turn into a signal.)

Test [3] has as its target T2, Delta-type opioid receptor (Homo sapiens, UniProt P41143). In words: Inhibition of delta opioid receptor (unknown origin) by radioligand binding assay.
Test [4] deals with T2, Delta-type opioid receptor. In words: Inhibition of delta opioid receptor (unknown origin) by MVD assay.
The target in test [5] is T1, Mu-type opioid receptor. In words: Inhibition of mu opioid receptor (unknown origin).
The species named for test [6] is Homo sapiens. The test is described as follows: Selectivity ratio of IC50 for mu opioid receptor (unknown origin) to IC50 for delta opioid receptor (unknown origin) by radioligand binding assay.
For test [7], the species on record is Homo sapiens. In words: Selectivity ratio of IC50 for mu opioid receptor (unknown origin) to IC50 for delta opioid receptor (unknown origin) by MVD assay.
In test [8] the target is T2, Delta-type opioid receptor. In words: Inhibition of full length delta opioid receptor (unknown origin) assessed as inhibition of forskolin-stimulated intracellular cAMP accumulation. In kind it is functional, cell-based.
In test [9] the target is T2, Delta-type opioid receptor. In words: Inhibition of full length delta opioid receptor (unknown origin) assessed as increase in beta arrestin 1 recruitment.
The target of test [10] is T2, Delta-type opioid receptor. In words: Inhibition of full length delta opioid receptor (unknown origin) assessed as increase in beta arrestin 2 recruitment.
Test [11] has as its target T1, Mu-type opioid receptor. In words: Inhibition of mu opioid receptor (unknown origin) in presence of DAMGO by [35S]-GTPgammaS binding assay. In kind it is functional. On the technique in general: GTPγS is a poorly hydrolysed GTP analogue; its binding reports G protein activation.
For test [12], the target named is T2, Delta-type opioid receptor. In words: Inhibition of delta opioid receptor (unknown origin) in presence of DAMGO by [35S]-GTPgammaS binding assay. Format: functional.
The target in test [13] is T1, Mu-type opioid receptor. The test is described as follows: Inhibition of mu opioid receptor (unknown origin) in presence of DPDPE by [35S]-GTPgammaS binding assay. Format: functional.
For test [14], the target named is T2, Delta-type opioid receptor. The test is described as follows: Inhibition of delta opioid receptor (unknown origin) in presence of DPDPE by [35S]-GTPgammaS binding assay. In kind it is functional.
Test [15] deals with T3, Kappa-type opioid receptor (Homo sapiens, UniProt P41145). In words: Inhibition of kappa opioid receptor (unknown origin) in presence of DAMGO by [35S]-GTPgammaS binding assay. Format: functional.
T3 sequence (P41145 whole entry): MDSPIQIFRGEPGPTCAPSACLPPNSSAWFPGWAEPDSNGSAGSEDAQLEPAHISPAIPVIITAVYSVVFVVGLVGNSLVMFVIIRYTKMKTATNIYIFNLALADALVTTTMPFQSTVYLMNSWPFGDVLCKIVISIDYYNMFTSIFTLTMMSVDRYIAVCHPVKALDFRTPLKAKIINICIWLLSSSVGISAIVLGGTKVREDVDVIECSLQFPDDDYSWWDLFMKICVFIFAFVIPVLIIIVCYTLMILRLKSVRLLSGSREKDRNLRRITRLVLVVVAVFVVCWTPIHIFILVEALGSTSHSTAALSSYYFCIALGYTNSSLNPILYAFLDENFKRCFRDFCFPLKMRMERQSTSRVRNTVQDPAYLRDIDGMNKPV
In test [16] the target is T3, Kappa-type opioid receptor. In words: Inhibition of kappa opioid receptor (unknown origin) in presence of DPDPE by [35S]-GTPgammaS binding assay. In kind it is functional.
Test [17] addresses T2, Delta-type opioid receptor. In words: Inhibition of delta opioid receptor (unknown origin) in presence of DAMGO by [35S]-GTPgammaS binding assay relative to control. In kind it is functional.
The target in test [18] is T1, Mu-type opioid receptor. In words: Inhibition of mu opioid receptor (unknown origin) in presence of DPDPE by [35S]-GTPgammaS binding assay relative to control. Format: functional.
For test [19], the target named is T2, Delta-type opioid receptor. In words: Inhibition of delta opioid receptor (unknown origin) in presence of DPDPE by [35S]-GTPgammaS binding assay relative to control. Format: functional.
Test [20] deals with T3, Kappa-type opioid receptor. In words: Inhibition of kappa opioid receptor (unknown origin) in presence of DAMGO by [35S]-GTPgammaS binding assay relative to control. Format: functional.
In test [21] the target is T3, Kappa-type opioid receptor. In words: Inhibition of kappa opioid receptor (unknown origin) in presence of DPDPE by [35S]-GTPgammaS binding assay relative to control. In kind it is functional.
In test [22] the target is T3, Kappa-type opioid receptor. The test is described as follows: Binding affinity to kappa opioid receptor (unknown origin).
Test [23] deals with T3, Kappa-type opioid receptor. In words: Inhibition of kappa opioid receptor (unknown origin).
For test [24], the target named is T3, Kappa-type opioid receptor. In words: Inhibition of kappa opioid receptor (unknown origin) relative to control.
The target of test [25] is T1, Mu-type opioid receptor. In words: Displacement of [3H]DAMGO from mu opioid receptor (unknown origin) expressed in HEK293 cells after 1 hr by liquid scintillation counting. In kind it is cell-based.
In test [26] the target is T4, Mu-type opioid receptor (Cavia porcellus, UniProt P97266). The test is described as follows: Inhibition of mu opioid receptor in guinea pig brain membranes. Format: cell membranes.
T4 sequence (P97266 whole entry): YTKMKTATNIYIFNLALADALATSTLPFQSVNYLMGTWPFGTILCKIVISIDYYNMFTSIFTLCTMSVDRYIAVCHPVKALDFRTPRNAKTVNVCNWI
Test [27] is described as follows: Inhibition of delta opioid receptor in guinea pig brain membranes. Format: cell membranes, Cavia porcellus.
In test [28] the target is T5, Kappa-type opioid receptor (Cavia porcellus, UniProt P41144). The test is described as follows: Inhibition of kappa opioid receptor in guinea pig brain membranes. Format: cell membranes.
T5 sequence (P41144 whole entry): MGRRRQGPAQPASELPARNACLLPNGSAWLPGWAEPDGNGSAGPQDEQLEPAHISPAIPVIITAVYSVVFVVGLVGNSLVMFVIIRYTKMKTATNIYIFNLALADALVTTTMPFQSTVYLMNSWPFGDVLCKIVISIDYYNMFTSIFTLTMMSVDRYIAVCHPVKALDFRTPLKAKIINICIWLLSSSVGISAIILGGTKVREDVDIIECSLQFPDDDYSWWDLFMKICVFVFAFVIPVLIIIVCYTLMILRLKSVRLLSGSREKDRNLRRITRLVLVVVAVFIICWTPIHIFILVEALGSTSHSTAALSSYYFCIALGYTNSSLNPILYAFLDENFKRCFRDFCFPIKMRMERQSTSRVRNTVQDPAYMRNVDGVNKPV
The target of test [29] is T4, Mu-type opioid receptor. In words: Agonist activity at mu opioid receptor in guinea pig brain membranes by [35S]-GTPgammaS binding assay. Format: functional, cell membranes.
Test [30] in a line: Agonist activity at delta opioid receptor in guinea pig brain membranes by [35S]-GTPgammaS binding assay. Format: cell membranes, Cavia porcellus.
Test [31] concerns the target T5, Kappa-type opioid receptor. In words: Agonist activity at kappa opioid receptor in guinea pig brain membranes by [35S]-GTPgammaS binding assay. In kind it is functional, cell membranes.

Non-standard residues stand in square brackets, D forms with d. Residues, ends and D or L forms follow the SMILES beside them. ξ: configuration not given here. ξP = O=C(O)C1CCCN1

T1 sequence (P35372 whole entry): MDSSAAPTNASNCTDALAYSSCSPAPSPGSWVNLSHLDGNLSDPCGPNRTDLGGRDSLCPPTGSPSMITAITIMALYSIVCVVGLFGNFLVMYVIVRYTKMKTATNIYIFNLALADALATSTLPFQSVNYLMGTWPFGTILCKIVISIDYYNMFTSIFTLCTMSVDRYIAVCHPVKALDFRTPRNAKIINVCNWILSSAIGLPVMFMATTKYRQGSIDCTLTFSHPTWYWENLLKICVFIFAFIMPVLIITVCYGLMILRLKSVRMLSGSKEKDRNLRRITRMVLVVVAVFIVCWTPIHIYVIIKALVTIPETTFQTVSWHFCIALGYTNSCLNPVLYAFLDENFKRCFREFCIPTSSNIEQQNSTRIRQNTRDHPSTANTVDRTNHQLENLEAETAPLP
T2 sequence (P41143 whole entry): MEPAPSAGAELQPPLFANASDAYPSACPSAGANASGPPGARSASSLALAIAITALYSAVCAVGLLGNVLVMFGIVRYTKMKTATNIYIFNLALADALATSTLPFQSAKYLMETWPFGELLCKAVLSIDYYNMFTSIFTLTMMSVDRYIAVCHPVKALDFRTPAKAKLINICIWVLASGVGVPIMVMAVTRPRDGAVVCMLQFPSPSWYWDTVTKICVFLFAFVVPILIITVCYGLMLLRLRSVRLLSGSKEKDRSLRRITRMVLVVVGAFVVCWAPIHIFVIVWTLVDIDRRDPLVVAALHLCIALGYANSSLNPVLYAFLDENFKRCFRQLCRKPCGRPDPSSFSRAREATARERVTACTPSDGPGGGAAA

Turning to `CN(C)[C@H](CNC(=O)NCCc1cccs1)Cc1cccc2ccccc12`, the EC50 in [1] and in test [2] was 0.0524 to 0.0911 µM in each case.

`CN(C)[C@H](CNC(=O)NCCc1ccsc1)Cc1cccc2ccccc12`: the EC50 in [1] and in [2] was 0.203 µM throughout.

In the case of `CC(C)C[C@H](NC(=O)C1CCCN1C(=O)[C@@H](N)Cc1ccc(O)cc1)C(=O)N[C@@H](CC(=O)O)C(=O)N[C@@H](CC(C)C)C(=O)N[C@@H](Cc1ccccc1)C(=O)O` (some centres undefined) (H-Y[ξP]LDLF-OH), the IC50 in [3] was 0.9 µM; in test [4] it was 24.4 µM; in test [5], over 2000 µM; in test [8], 1.58 µM. Further, the Ratio IC50 in test [6] and in [7] was 500 throughout. The EC50 in test [9] and in [10] was 7.94 µM in each case.

Take `C[C@H](Cc1ccsc1)NC(=O)NC[C@H](Cc1ccc2ccccc2c1)N(C)C`: the EC50 in test [1] and in test [2] was 0.0524 to 0.0911 µM throughout.

As for `CC[C@@H]1CN2CC[C@]3(Nc4cccc(OC)c4C3=O)[C@@H]2C[C@@H]1/C(=C\OC)C(=O)OC`, the half-maximal effective concentration (EC50) in [11], in test [12], in [13], in test [14], in test [15] and in test [16] was 0.0017 µM each time. In addition, the IC50 in [11] is 0.00661 µM; in test [12] it was 0.0017 µM; in test [13] it was 0.000282 µM; in test [14] it was 0.00126 µM; in test [15], 0.132 µM; in [16], 0.132 µM. The Emax in test [17], in test [18], in [19], in test [20] and in test [21] was 82% throughout.

For `COC(=O)[C@@H]1C[C@H](OC(=O)Cl)C(=O)[C@H]2[C@@]1(C)CC[C@H]1C(=O)O[C@H](c3ccoc3)C[C@]21C`, binding in test [22] was characterised by a dissociation constant (Kd) of 0.0021 µM. The molecule also came in with an EC50 in [23] of 0.00019 µM. Also, in test [24], the Emax is 85%.

With `C[C@@H](Cc1ccsc1)NC(=O)NC[C@H](Cc1ccc2ccccc2c1)N(C)C`, the EC50 in test [1] and in test [2] was 0.0524 to 0.0911 µM throughout.

Consider `C=C(C(N)=O)C(NC(=O)[C@H](Cc1ccccc1)NC(=O)[C@@H](C)N(C)C(=O)C(N)Cc1c(C)cc(O)cc1C)c1ccccc1` (some centres undefined), for which, in test [25], the EC50 was 1.77 to 5.15 pM and the Ki was 0.0109 to 0.0511 nM.

Consider `C[C@@H](Cc1ccsc1)NC(=O)NC[C@H](Cc1cccc2ccccc12)N(C)C`, for which the EC50 in test [1] and in test [2] was 0.456 µM in each case.

In the case of `CN(C)[C@H](CNC(=O)NCCc1ccsc1)Cc1ccc2ccccc2c1`, the EC50 in [1] and in test [2] was 0.0524 to 0.243 µM throughout.

In the case of `CC[C@@H]1CN2CC[C@@]3(O)C(=Nc4cccc(OC)c43)[C@@H]2C[C@@H]1/C(=C\OC)C(=O)OC`, the Ki in test [26] was 0.0072 µM; in test [27], 0.06 µM; in [28], over 1 µM. The half-maximal effective concentration (EC50) in test [29], in test [30] and in test [31] was 0.053 µM each time.

Molecule `COC(=O)[C@@H]1C[C@H](OC(=O)CSC#N)C(=O)[C@H]2[C@@]1(C)CC[C@H]1C(=O)O[C@H](c3ccoc3)C[C@]21C` [22-THIOCYANATOSALVINORIN A] displayed a Kd in test [22] of 0.00059 µM.

As usually defined, the EC50 is the concentration giving half of the maximal effect. In general, IC50 refers to the concentration that gives 50% inhibition. In general, Emax refers to the size of the effect at its maximum, as opposed to the concentration needed. What is called Kd is a measure of binding affinity in units of concentration. High values mean weaker binding, low ones tighter binding. One may read the Ki as the equilibrium dissociation constant of an inhibitor or competing ligand from its target. A high value points to weaker binding.
